Measured values: patent US8389509B2, “Substituted pyrazole compounds” (Bristol-Myers Squibb Company, priority 2009, dated 2013)
pEC50, pIC50: −log10 of the molar value. Structures can show the parent of a compound that is named as a salt.

Legend:
[1] = target: T1, S1P1 (Homo sapiens, UniProt P21453); experiment: Method B: Receptor [35S] GTPγS SPA Binding Assay, S1P1; assay type: biochemical; conditions: for pEC50: Method B (SPA), S1P1 transfected CHO cell membranes; for GTPγS S1P3/S1P1 (Method B): ratio of S1P3 EC50 to S1P1 EC50, Method B
T1 construct: expressed in transfected cells; host or cells: CHO cells
Description: (§1) Method B: Receptor [^35S] GTPγS SPA Binding Assays
(§2) Membranes prepared from S1P1 or S1P3 transfected CHO cells (2 μg protein) were incubated in 96-well white plates (CORNING® 3693) with test compounds diluted in DMSO, in 50 μl of reaction mixture containing 7.5 μA WGA-PVT beads (20 mg/ml), and 5 μM GDP, 20 mM HEPES pH 7.4, 100 mM NaCl, 1 mM EDTA, 5 mM MgCl2, 10 μg/ml saponin, 0.1% BSA, and 1 μM leupeptin. The assay was initiated with the addition of […] of 0.2 nM [^35S]-GTPγS (1250 Ci/mmol; NEN) in assay buffer. After 90 min incubation at room temperature, spin the plate at 1000 rpm for 5 min. The bound radionuclides were measured at TOPCOUNT®, expressed as % response relative to S1P (1 μM) activation. Data was analyzed using the four parameter logistic equation in Excel. The four parameters in the equation, Y=A+((B−A)/(1+((EC50/X)^D))), are described as following: A is the Y value (agonist activity) at the bottom plateau; B is the Y value at the top plateau; EC50 is the X value (agonist concentration) when the response is halfway between bottom and top; D is Hill coefficient. Curves were not generated for compounds having Ymax values were below 50%.
(§3) Compounds of the present invention and Comparative Compound A were tested in the Receptor [^35S] GTPγS Binding Assays (Method A) and Receptor [^35S] In some instances, the value is an average of multiple experiments where N is the number of experiments conducted that provided satisfactory dose response curves. When more than one batch of an example was tested, the value presented is from a batch which allowed a comparison of GTPγS S1P1 and GTPγS S1P3 in which the most number of experiments were performed. Preferably, the same batch was examined in Method A and Method B. Data was not averaged across different batches of an example compound.

[2] = target: S1P3 (Homo sapiens, UniProt Q99500); experiment: Method B: Receptor [35S] GTPγS SPA Binding Assay, S1P3; assay type: biochemical; design: expressed in transfected cells; host or cells: CHO cells; conditions: S1P3 transfected CHO cell membranes
Description: as §1, §2, §3

[3] = target: T1, S1P1; experiment: S1P1 Binding Assay (33P-S1P competition, CHO membranes); conditions: membranes of CHO cells expressing human S1P1, 33P-S1P ligand; read-out: S1P1 B IC50
Description: Membranes were prepared from CHO cells expressing human S1P1. Cells were dissociated in buffer containing 20 mM HEPES, pH 7.5, 50 mM NaCl, 2 mM EDTA and Protease Inhibitor cocktail (Roche), and disrupted on ice using the Polytron homogenizer. The homogenate was centrifuged at 20,000 rpm (48,000 g) and the supernatant was discarded. The membrane pellets were resuspended in buffer containing 50 mM HEPES, pH 7.5, 100 mM NaCl, 1 mM MgCl2, 2 mM EDTA and stored in aliquots at −80° C. after protein concentration determination.
Membranes (2 μg/well) and 0.03 nM final concentration of ^33P-S1P ligand (1 mCi/ml, American Radiolabeled Chemicals) were added to the compound plates. Binding was performed for 60 min at room temperature, terminated by collecting the membranes onto GF/B filter plates, and radioactivity was measured by TOPCOUNT®. The competition data of the test compounds over a range of concentrations was plotted as percentage inhibition of radioligand specific binding. The IC50 is defined as the concentration of competing ligand needed to reduce specific binding by 50%.
Compounds of the present invention and Comparative Compound A were tested in the S1P1 binding assay described hereinabove and the results rounded to two digits, shown in Table A were obtained. In some instances, the value is an average of multiple experiments where N is the number of experiments conducted that provided satisfactory dose response curves. When more than one batch of an example was tested, the value presented is from the batch which allowed a comparison of GTPγS S1P1 and GTPγS S1P3 in Method A (Data shown in Table B). Data was not averaged across different batches of an example compound.

[4] = target: T1, S1P1; experiment: Method A: Receptor [35S] GTPγS Binding Assay, S1P1; assay type: biochemical; conditions: ratio of S1P3 EC50 to S1P1 EC50, Method A
Description: Method A: Receptor [35S] GTPγS Binding Assays
Compounds were loaded in a 384 FALCON® v-bottom plate (0.5 μl/well in a 3-fold dilution). Membranes prepared from S1P1/CHO cells or EDG3-Gal5-bla HEK293T cells were added to the compound plate (40 μl/well, final protein 3 μg/well) with MULTIDROP®. [^35S]GTP (1250 Ci/mmol, Perkin Elmer) was diluted in assay buffer: 20 mM HEPES, pH7.5, 10 mM MgCl2, 150 mM NaCl, 1 mM EGTA, 1 mM DTT, 10 μM GDP, 0.1% fatty acid free BSA, and 10 μg/ml Saponin to 0.4 nM. 40 μl of the [^35S] GTP solution was added to the compound plate with a final concentration of 0.2 nM. The reaction was kept at room temperature for 45 min. At the end of incubation, all the mixtures in the compound plate were transferred to a 384 well FB filter plates via GPCR robot system. The filter plate was washed with water 4 times by using the modified manifold Embla plate washer and dried at 60° C. for 45 min. 30 μA of MicroScint 20 scintillation fluid was added to each well for counting at Packard TOPCOUNT®. EC50 is defined as the agonist concentration that corresponds to 50% of the Ymax (maximal response) obtained for each individual compound tested.
as §3

T1 sequence (P21453 whole entry): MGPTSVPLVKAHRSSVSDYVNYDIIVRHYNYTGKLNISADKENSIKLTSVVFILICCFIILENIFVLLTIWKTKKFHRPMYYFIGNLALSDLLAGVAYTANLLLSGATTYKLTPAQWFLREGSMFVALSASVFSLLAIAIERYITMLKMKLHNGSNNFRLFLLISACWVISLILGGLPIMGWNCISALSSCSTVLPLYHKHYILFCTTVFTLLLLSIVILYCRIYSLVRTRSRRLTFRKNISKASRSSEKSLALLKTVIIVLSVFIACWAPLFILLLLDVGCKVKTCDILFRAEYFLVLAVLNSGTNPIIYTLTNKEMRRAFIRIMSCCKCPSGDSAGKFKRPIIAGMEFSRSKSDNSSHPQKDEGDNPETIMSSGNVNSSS
Chain of S1P3 (Q99500 whole entry): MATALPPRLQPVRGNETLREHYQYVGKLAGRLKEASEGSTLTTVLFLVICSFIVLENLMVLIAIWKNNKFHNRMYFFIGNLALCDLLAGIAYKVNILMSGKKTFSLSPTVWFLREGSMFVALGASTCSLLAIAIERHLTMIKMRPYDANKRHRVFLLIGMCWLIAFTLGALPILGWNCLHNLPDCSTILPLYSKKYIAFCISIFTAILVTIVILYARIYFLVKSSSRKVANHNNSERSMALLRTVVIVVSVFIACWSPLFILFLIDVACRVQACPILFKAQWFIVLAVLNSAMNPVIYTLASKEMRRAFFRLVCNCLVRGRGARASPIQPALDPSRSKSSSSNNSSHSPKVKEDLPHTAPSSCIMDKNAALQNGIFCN

Row | pEC50 [1] | GTPγS S1P3/S1P1 (Method B) [1] | pEC50 [2] | pIC50 [3] | GTPγS S1P3/S1P1 (Method A) [4] | SMILES
1 | 8.72 | 1,100 | 5.70 | – | – | O=C(O)C1CN(Cc2ccc(-c3noc(-c4cnn(-c5ccccc5)c4Cl)n3)cc2)C1 [Example 11, 1-(4-(5-(5-chloro-1-phenyl-1H-pyrazol-4-yl)-1,2,4-oxadiazol-3-yl)benzyl)azetidine-3-carboxylic acid]
2 | 9.72 | 2,100 | 6.40 | 8.96 | – | CCNc1c(-c2nc(-c3ccc(CN4CC(C(=O)O)C4)cc3)no2)cnn1-c1ccccc1 [Example 4, 1-(4-(5-(5-(ethylamino)-1-phenyl-1H-pyrazol-4-yl)-1,2,4-oxadiazol-3-yl)benzyl)azetidine-3-carboxylic acid]
3 | 9.77 | 300 | 7.29 | 8.51 | – | CCCCNc1c(-c2nc(-c3ccc(CN4CC(C(=O)O)C4)cc3)no2)cnn1-c1ccccc1 [Example 13, 1-(4-(5-(5-(n-butylamino)-1-phenyl-1H-pyrazol-4-yl)-1,2,4-oxadiazol-3-yl)benzyl)azetidine-3-carboxylic acid]
4 | – | 78 | – | – | 1.2 | O=C(O)C1CN(Cc2ccc(-c3noc(-c4cc(-c5ccccc5)c(C(F)(F)F)s4)n3)cc2)C1 [Comp. A, 1-(4-(5-(4-phenyl-5-(trifluoromethyl)thiophen-2-yl)-1,2,4-oxadiazol-3-yl)benzyl)-azetidine-3-carboxylic acid, reference compound]
5 | 9.82 | 11,000 | 5.77 | 9.32 | – | CC(C)Nc1c(-c2nc(-c3ccc(CN4CC(C(=O)O)C4)cc3)no2)cnn1-c1ccccc1 [Example 3, 1-(4-(5-(5-(isopropylamino)-1-phenyl-1H-pyrazol-4-yl)-1,2,4-oxadiazol-3-yl)benzyl)azetidine-3-carboxylic acid]
6 | 9.38 | 2,600 | 5.96 | 8.96 | – | O=C(O)C1CN(Cc2ccc(-c3noc(-c4cnn(-c5ccccn5)c4-c4ccccc4)n3)cc2)C1 [Example 10, 1-(4-(5-(5-phenyl-1-(pyridin-2-yl)-1H-pyrazol-4-yl)-1,2,4-oxadiazol-3-yl)benzyl)azetidine-3-carboxylic acid]
7 | 8.68 | 3,400 | 5.15 | 9.01 | – | O=C(O)C1CN(Cc2ccc(-c3noc(-c4cnn(-c5ccccc5)c4Br)n3)cc2)C1 [Example 14, 1-(4-(5-(5-Bromo-1-phenyl-1H-pyrazol-4-yl)-1,2,4-oxadiazol-3-yl)benzyl)azetidine-3-carboxylic acid, 2,2,2-trifluoroacetic acid salt]
8 | 10.06 | 2,500 | 6.66 | 9.72 | – | O=C(O)C1CN(Cc2ccc(-c3noc(-c4cnn(-c5ccccn5)c4C4CCCC4)n3)cc2)C1 [Example 7, 1-(4-(5-(5-cyclopentyl-1-(pyridin-2-yl)-1H-pyrazol-4-yl)-1,2,4-oxadiazol-3-yl)benzyl)azetidine-3-carboxylic acid]
9 | 9.55 | 35,000 | 5.01 | 8.77 | – | CC(C)CNc1c(-c2nc(-c3ccc(CN4CC(C(=O)O)C4)cc3)no2)cnn1-c1ccccc1 [Example 12, 1-(4-(5-(5-(Isobutylamino)-1-phenyl-1H-pyrazol-4-yl)-1,2,4-oxadiazol-3-yl)benzyl)azetidine-3-carboxylic acid]
10 | 8.89 | 550 | 6.15 | – | – | Cc1c(-c2nc(-c3ccc(CN4CC(C(=O)O)C4)cc3)no2)cnn1C1CCCCC1 [Example 9, 1-(4-(5-(1-cyclohexyl-5-methyl-1H-pyrazol-4-yl)-1,2,4-oxadiazol-3-yl)benzyl)azetidine-3-carboxylic acid]
